≈ marks a conversion by molar mass, not a printed value.

The assay relates to Vaccinia virus. As to the kind of experiment: Minimum inhibitory concentration required to reduce vaccinia virus induced cytopathogenicity by 50% in primary rabbit kidney cells (PRK). It is filed as functional. Conditions: Orthopoxvirus vaccinia. Background: Protection from cytopathic effect is a common read-out in antiviral testing.
Consider `COC(=O)c1cc(NC(=O)c2cc([N+](=O)[O-])cn2C)cn1C`, for which the MIC was above 10 µg/mL.

On to `Nc1nccc2c1ncn2[C@@H]1C[C@H](CO)[C@@H](O)[C@H]1O` [3-DEAZAARISTEROMYCIN A], for which the MIC worked out at 2 µg/mL (≈ 7.57 µM).

As for `Cn1cc(NC(=O)c2cc([N+](=O)[O-])cn2C)cc1C(=O)NCCC#N`, the MIC is above 10 µg/mL.

Compound `Cn1c(C(=O)O)ccc1[N+](=O)[O-]` displayed an MIC above 200 µg/mL.

For `Cn1c(C(=O)NCCC(=N)N)ccc1[N+](=O)[O-]`, the MIC was above 100 µg/mL.

In the case of `Nc1ncnc2c1ncn2C[C@H](O)CO` [(S)-DHPA], the MIC stood at 70 µg/mL (≈ 335 µM).

For the compound `NC(=O)c1ncn([C@@H]2O[C@H](CO)[C@@H](O)[C@H]2O)n1` [RIBAVIRIN], the MIC worked out at 2 µg/mL (≈ 8.19 µM).

Regarding `CC(NC(=O)c1cc(NC(=O)c2cc(NC(=O)CNC(=N)N)cn2C)cn1C)C(=O)O` (centres undefined), the MIC was above 200 µg/mL.

In turn, `C[C@H](NC(=O)[C@H](C)NC(=O)[C@H](C)NC(=O)c1cc(NC(=O)c2cc(NC(=O)CNC(=N)N)cn2C)cn1C)C(=O)O` showed an MIC above 400 µg/mL.

`CC(NC(=O)c1cc(NC(=O)c2cc([N+](=O)[O-])cn2C)cn1C)C(=O)OC(C)(C)C` (centres undefined): the MIC is above 40 µg/mL.

On to `CC(NC(=O)c1cc(NC(=O)c2cc(NC(=O)CNC(=N)N)cn2C)cn1C)C(=O)NC(C)C(=O)OC(C)(C)C` (centres undefined), for which the MIC is above 200 µg/mL.

In the case of `Cn1cc([N+](=O)[O-])cc1C(=O)O`, the MIC is above 400 µg/mL.

`CC(NC(=O)c1cc(NC(=O)c2cc([N+](=O)[O-])cn2C)cn1C)C(=O)NC(C)C(=O)OC(C)(C)C` (centres undefined) returned an MIC above 100 µg/mL.

Take `Cn1cc(NC(=O)c2cc([N+](=O)[O-])cn2C)cc1C(=O)O`: the MIC was above 400 µg/mL.

`Cn1cc(NC(=O)CNC(=N)N)cc1C(=O)NCCCNCCCCN` gave an MIC above 400 µg/mL.

For `Cn1cc(NC(=O)c2cc([N+](=O)[O-])cn2C)cc1C(=O)NCCCNCCCCN`, the MIC was above 200 µg/mL.

In the case of `Cn1cc(NC(=O)c2cc([N+](=O)[O-])cn2C)cc1C(=O)NCCC(=N)N`, the MIC is above 100 µg/mL.

For the compound `Cn1cc([N+](=O)[O-])cc1C(=O)NCCCNCCCCN`, the MIC is above 200 µg/mL.

`Cn1cc(NC(=O)c2cc(NC(=O)CNC(=N)N)cn2C)cc1C(=O)NCCC(=N)N` [NETROPSIN] had an MIC of 70 µg/mL (≈ 163 µM).

For the compound `Cn1cc([N+](=O)[O-])cc1C(=O)NCCC#N`, the MIC is above 200 µg/mL.

In turn, `Nc1ncnc2c1ccn2[C@@H]1O[C@H](CO)[C@@H](O)[C@H]1O` [TUBERCIDIN] showed an MIC of 0.07 µg/mL (≈ 0.263 µM).

As to `CC(NC(=O)c1cc(NC(=O)c2cc(NC(=O)CNC(=N)N)cn2C)cn1C)C(=O)OC(C)(C)C` (centres undefined), the MIC was determined as 150 µg/mL (≈ 307 µM).

`Cn1c(C(=O)NCCC#N)ccc1[N+](=O)[O-]` came in with an MIC above 200 µg/mL.

For `C[C@H](NC(=O)c1cc(NC(=O)c2cc([N+](=O)[O-])cn2C)cn1C)C(=O)N[C@@H](C)C(=O)N[C@@H](C)C(=O)OC(C)(C)C`, the MIC was above 100 µg/mL.

Compound `CC(NC(=O)C(C)NC(=O)c1cc(NC(=O)c2cc(NC(=O)CNC(=N)N)cn2C)cn1C)C(=O)O` (centres undefined) returned an MIC above 400 µg/mL.

`COC(=O)c1ccc([N+](=O)[O-])n1C` yielded an MIC above 400 µg/mL.

In turn, `Cn1cc(NC(=O)c2cc(NC(=O)CNC(=N)N)cn2C)cc1C(=O)NCCCNCCCCN` yielded an MIC above 200 µg/mL.

With `C[C@H](NC(=O)c1cc(NC(=O)c2cc(NC(=O)CNC(=N)N)cn2C)cn1C)C(=O)N[C@@H](C)C(=O)N[C@@H](C)C(=O)OC(C)(C)C`, the MIC was above 100 µg/mL.

On to `Cn1cc([N+](=O)[O-])cc1C(=O)NCCC(=N)N`, for which the MIC is above 200 µg/mL.

Source of the values: ChEMBL document CHEMBL1124462, “Synthesis, DNA binding, and biological evaluation of synthetic precursors and novel analogues of netropsin” (J Med Chem, 1989).
